“Also recorded” adds a separate entry of the source.

For data set [1], the system named is HeLa cells. As to the kind of experiment: Cell viability assay (MTT). Type of data set: cell-based, human. The conditions noted are these: 24 h, serum containing medium; for Cell viability (MTT): HeLa, unlabeled peptide 0, 5, 10 and 20 μM, 37 °C. The method, then:
(§1) Figure 3 Cell viability assay. (A) HeLa, (B) PC3 and (C) MDA-MB-231 cells were incubated with increasing concentrations (5, 10, and 20 μM) of peptides in serum containing medium at 37 °C for 24 h. Cell viability was measured by MTT assay. Viability of only cells (without peptide) was taken as 100% and viabilities of cells treated with increasing concentration of peptides were plotted as percentage of control.
(§2) Cell viability was determined by MTT assay. Briefly, cells (HeLa, PC3 and MDA-MB-231) were seeded at a density of 5 × 10^3 cells/well in 96-well microtiter plates in medium supplemented with 10% FBS 24 h before the start of the experiment. Cells were incubated with different concentrations (5, 10, and 20 μM, respectively) of unlabeled peptides for 24 h. […] At the end of the incubation period, cell growth was assayed by the addition of 20 μl of MTT (5 mg/mL; Sigma-Aldrich) to each well, and plate was incubated at 37 °C for 4 h. Later, the medium was removed carefully, 200 μl DMSO was added and mixed, and the absorbance was read at 570 nm with a microplate reader (Bio-Rad). The survival of cells relative to the control (cells incubated with growth medium containing no peptide) was calculated by taking the ratio of the absorbance at 570 nm values. All the experiments were performed in triplicates.

The test system of data set [2] is HeLa cells. The data set is described as follows: Confocal laser scanning microscopy, intracellular localization in live cells. The conditions noted are these: FITC-labeled peptide 2.5 μM, 30 min, 37 °C.
Procedure: Cells were washed with PBS thrice and live cells were imaged. Scale bars are 10 μm.
Cells were not fixed to avoid artifactual localization of the internalized peptide. At the end of the incubation period, culture medium was removed, and coverslips were washed thoroughly with PBS for 3–5 minutes (thrice) and mounted on glass slides with the antifade reagent.
Thereafter, cells were washed with PBS thrice and immediately examined using the confocal microscope.
The subject of a further data set is MDA-MB-231 cells. The data set is described as follows: Cell viability assay (MTT). The conditions noted are these: unlabeled peptide 5, 10 and 20 μM, 24 h, serum containing medium. The class given is cell-based, human. The method, then: as §1, §2
A further data set concerns PC3 cells. As to the kind of experiment: Cell viability assay (MTT). Type of data set: cell-based, human. Particulars: unlabeled peptide 5, 10 and 20 μM, 24 h, serum containing medium. The procedure: as §1, §2

Take KLAKLAKKLAKLAK [reference compound]: the “Cell viability (MTT)” value with HeLa cells [1] is listed as “not effective at any concentration tested”. Besides, the “Internalization / fluorescence in cells by CLSM” value in the data set on HeLa cells [2] was “no fluorescence”.

Turning to “KLAKLAKKLAKLAKRRWRRWNRFNRRRCR [IMT-P8-KLA, fusion peptide of KLA and IMT-P8, 29 aa]”, the “Cell viability (MTT)” value in the data set with HeLa cells [1] is “dose-dependent decrease in cell viability; also recorded: caused significant cell death”; with MDA-MB-231 cells, “dose-dependent decrease in cell viability”; in the data set with PC3 cells, “dose-dependent decrease in cell viability”. The “Cell viability (MTT) at 20 μM” value in the data set on HeLa cells [1] (unlabeled peptide 20 μM, HeLa (text says all cell lines examined)) is listed as “significant decrease in cell viability”.

Turning to “RRWRRWNRFNRRRCR [IMT-P8, novel human protein-derived arginine-rich cell-penetrating peptide (Institute of Microbial Technology-Peptide 8), 15 aa]”, the “Cell viability (MTT)” value in the data set with HeLa cells [1] is given as “not effective at any concentration tested”.

(Values after paper PMC4870705, “Topical Delivery of Protein and Peptide Using Novel Cell Penetrating Peptide IMT-P8” (Scientific Reports, 2016).)
